Test results from paper PMC6409085, “Three odorant-binding proteins are involved in the behavioral response of Sogatella furcifera to rice plant volatiles” (PeerJ, 2019).
Several values for one entry are separate records, joined by “and”; a condition that tells them apart may be missing. Equal entries are not always repeated.

Tests used:
[1] = molecular target: SfurOBP2 (Sogatella furcifera, UniProt V5T759); experiment: biochemical; format: binding
Summary of the method: (§1)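 1-NPN displacement assay with odorant competitor at 2–20 µM; protein and probe both 2.0 µM at pH 7.4. Ki is calculated from IC50 using the protein/1-NPN dissociation constant.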

[2] = molecular target: SfurOBP1 (Sogatella furcifera, UniProt V5T8N5); experiment: biochemical; format: binding; settings: for Fluorescence competitive binding assay, fluorescence intensity: OBP1, three replicate columns
Chain of SfurOBP1 (V5T8N5 entry or part of it): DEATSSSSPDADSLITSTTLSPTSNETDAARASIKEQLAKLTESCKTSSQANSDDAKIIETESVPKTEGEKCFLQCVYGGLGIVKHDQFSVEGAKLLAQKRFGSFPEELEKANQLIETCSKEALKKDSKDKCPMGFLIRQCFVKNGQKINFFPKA
Summary of the method: as §1

[3] = molecular target: SfurOBP11 (Sogatella furcifera, UniProt V5T6E3); experiment: biochemical; format: binding
Chain of SfurOBP11 (V5T6E3 entry or part of it): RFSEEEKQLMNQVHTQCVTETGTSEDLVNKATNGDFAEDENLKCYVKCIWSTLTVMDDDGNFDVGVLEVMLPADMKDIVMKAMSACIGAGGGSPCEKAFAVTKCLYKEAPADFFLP
Summary of the method: as §1

[4] = molecular target: SfurOBP3 (Sogatella furcifera, UniProt V5T818); experiment: biochemical; format: binding; settings: for Fluorescence competitive binding assay, fluorescence intensity: OBP3, three replicate columns
Chain of SfurOBP3 (V5T818 entry or part of it): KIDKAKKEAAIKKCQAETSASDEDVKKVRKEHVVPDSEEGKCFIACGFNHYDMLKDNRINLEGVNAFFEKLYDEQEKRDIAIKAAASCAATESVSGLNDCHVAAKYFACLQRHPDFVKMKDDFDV
Summary of the method: as §1

[5] = system: S. furcifera adults; experiment: Y-tube olfactometer behavioral trials; format: in vivo, Sogatella furcifera; settings: odorant 50 µL/L vs hexane; adults
Summary of the method: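 Single S. furcifera adults (2 days post-emergence, starved 0.5 h) chose between odorant (100 µL of 50 µL/L on filter paper) and hexane control in a glass Y-tube, charcoal-filtered humidified air 300 mL/min per arm, 25 ± 1 °C, 50% RH. Choice scored if insect passed half an arm and stayed >1 min within 10 min; 45 insects per compound, chi-squared test.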

Chain of SfurOBP2 (V5T759 entry or part of it): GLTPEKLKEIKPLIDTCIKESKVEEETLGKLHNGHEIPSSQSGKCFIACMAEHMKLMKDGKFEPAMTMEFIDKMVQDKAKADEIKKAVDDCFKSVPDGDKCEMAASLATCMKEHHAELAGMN

C=CC(C)(O)CCC=C(C)C (stereo not drawn) [linalool]
IC50 [1]: > 20 µM
Fluorescence competitive binding assay, OBP2 (raw fluorescence reading) ([1]; ligand concentration 2 (unit not given), replicate column 1 of 3): 22475
Fluorescence competitive binding assay, OBP2 (raw fluorescence reading) ([1]; ligand concentration 2 (unit not given), replicate column 2 of 3): 19579
Fluorescence competitive binding assay, OBP2 (raw fluorescence reading) ([1]; ligand concentration 2 (unit not given), replicate column 3 of 3): 19869
Fluorescence competitive binding assay, OBP2 (raw fluorescence reading) ([1]; ligand concentration 4 (unit not given), replicate column 1 of 3): 18324
Fluorescence competitive binding assay, OBP2 (raw fluorescence reading) ([1]; ligand concentration 4 (unit not given), replicate column 2 of 3): 21526
Fluorescence competitive binding assay, OBP2 (raw fluorescence reading) ([1]; ligand concentration 4 (unit not given), replicate column 3 of 3): 18676
Fluorescence competitive binding assay, OBP2 (raw fluorescence reading) ([1]; ligand concentration 6 (unit not given), replicate column 1 of 3): 20143
Fluorescence competitive binding assay, OBP2 (raw fluorescence reading) ([1]; ligand concentration 6 (unit not given), replicate column 2 of 3): 19481
Fluorescence competitive binding assay, OBP2 (raw fluorescence reading) ([1]; ligand concentration 6 (unit not given), replicate column 3 of 3): 21546
Fluorescence competitive binding assay, OBP2 (raw fluorescence reading) ([1]; ligand concentration 8 (unit not given), replicate column 1 of 3): 18566
Fluorescence competitive binding assay, OBP2 (raw fluorescence reading) ([1]; ligand concentration 8 (unit not given), replicate column 2 of 3): 19629
Fluorescence competitive binding assay, OBP2 (raw fluorescence reading) ([1]; ligand concentration 8 (unit not given), replicate column 3 of 3): 19018
Fluorescence competitive binding assay, OBP2 (raw fluorescence reading) ([1]; ligand concentration 10 (unit not given), replicate column 1 of 3): 17948
Fluorescence competitive binding assay, OBP2 (raw fluorescence reading) ([1]; ligand concentration 10 (unit not given), replicate column 2 of 3): 18880
Fluorescence competitive binding assay, OBP2 (raw fluorescence reading) ([1]; ligand concentration 10 (unit not given), replicate column 3 of 3): 17034
Fluorescence competitive binding assay, OBP2 (raw fluorescence reading) ([1]; ligand concentration 12 (unit not given), replicate column 1 of 3): 17194
Fluorescence competitive binding assay, OBP2 (raw fluorescence reading) ([1]; ligand concentration 12 (unit not given), replicate column 2 of 3): 16713
Fluorescence competitive binding assay, OBP2 (raw fluorescence reading) ([1]; ligand concentration 12 (unit not given), replicate column 3 of 3): 16298
Fluorescence competitive binding assay, OBP2 (raw fluorescence reading) ([1]; ligand concentration 14 (unit not given), replicate column 1 of 3): 15375
Fluorescence competitive binding assay, OBP2 (raw fluorescence reading) ([1]; ligand concentration 14 (unit not given), replicate column 2 of 3): 15983
Fluorescence competitive binding assay, OBP2 (raw fluorescence reading) ([1]; ligand concentration 14 (unit not given), replicate column 3 of 3): 16080
Fluorescence competitive binding assay, OBP2 (raw fluorescence reading) ([1]; ligand concentration 16 (unit not given), replicate column 1 of 3): 16976
Fluorescence competitive binding assay, OBP2 (raw fluorescence reading) ([1]; ligand concentration 16 (unit not given), replicate column 2 of 3): 14612
Fluorescence competitive binding assay, OBP2 (raw fluorescence reading) ([1]; ligand concentration 16 (unit not given), replicate column 3 of 3): 14664
Fluorescence competitive binding assay, OBP2 (raw fluorescence reading) ([1]; ligand concentration 18 (unit not given), replicate column 1 of 3): 15874
Fluorescence competitive binding assay, OBP2 (raw fluorescence reading) ([1]; ligand concentration 18 (unit not given), replicate column 2 of 3): 15679
Fluorescence competitive binding assay, OBP2 (raw fluorescence reading) ([1]; ligand concentration 18 (unit not given), replicate column 3 of 3): 13833
Fluorescence competitive binding assay, OBP2 (raw fluorescence reading) ([1]; ligand concentration 20 (unit not given), replicate column 1 of 3): 14349
Fluorescence competitive binding assay, OBP2 (raw fluorescence reading) ([1]; ligand concentration 20 (unit not given), replicate column 2 of 3): 13969
Fluorescence competitive binding assay, OBP2 (raw fluorescence reading) ([1]; ligand concentration 20 (unit not given), replicate column 3 of 3): 12873
IC50 [2]: > 20 µM
Fluorescence competitive binding assay, fluorescence intensity ([2]; ligand concentration 2 (μM)): 6084 and 5184 and 7029
Fluorescence competitive binding assay, fluorescence intensity ([2]; ligand concentration 4 (μM)): 5717 and 6456 and 6034
Fluorescence competitive binding assay, fluorescence intensity ([2]; ligand concentration 6 (μM)): 5873 and 6101 and 6679
Fluorescence competitive binding assay, fluorescence intensity ([2]; ligand concentration 8 (μM)): 5733 and 6957 and 6693
Fluorescence competitive binding assay, fluorescence intensity ([2]; ligand concentration 10 (μM)): 5847 and 5923 and 6121
Fluorescence competitive binding assay, fluorescence intensity ([2]; ligand concentration 12 (μM)): 6065 and 6137 and 6412
Fluorescence competitive binding assay, fluorescence intensity ([2]; ligand concentration 14 (μM)): 7822 and 5806 and 6262
Fluorescence competitive binding assay, fluorescence intensity ([2]; ligand concentration 16 (μM)): 5059 and 6382 and 5339
Fluorescence competitive binding assay, fluorescence intensity ([2]; ligand concentration 18 (μM)): 6537 and 6532 and 5815
Fluorescence competitive binding assay, fluorescence intensity ([2]; ligand concentration 20 (μM)): 6056 and 5740 and 5464
IC50 [3]: > 20 µM
Fluorescence intensity, fluorescence competitive binding assay, OBP11 ([3]; ligand concentration 2, replicate 1): 34595
Fluorescence intensity, fluorescence competitive binding assay, OBP11 ([3]; ligand concentration 2, replicate 2): 35145
Fluorescence intensity, fluorescence competitive binding assay, OBP11 ([3]; ligand concentration 2, replicate 3): 35691
Fluorescence intensity, fluorescence competitive binding assay, OBP11 ([3]; ligand concentration 4, replicate 1): 34126
Fluorescence intensity, fluorescence competitive binding assay, OBP11 ([3]; ligand concentration 4, replicate 2): 38977
Fluorescence intensity, fluorescence competitive binding assay, OBP11 ([3]; ligand concentration 4, replicate 3): 36540
Fluorescence intensity, fluorescence competitive binding assay, OBP11 ([3]; ligand concentration 6, replicate 1): 35921
Fluorescence intensity, fluorescence competitive binding assay, OBP11 ([3]; ligand concentration 6, replicate 2): 34102
Fluorescence intensity, fluorescence competitive binding assay, OBP11 ([3]; ligand concentration 6, replicate 3): 34901
Fluorescence intensity, fluorescence competitive binding assay, OBP11 ([3]; ligand concentration 8, replicate 1): 31879
Fluorescence intensity, fluorescence competitive binding assay, OBP11 ([3]; ligand concentration 8, replicate 2): 34190
Fluorescence intensity, fluorescence competitive binding assay, OBP11 ([3]; ligand concentration 8, replicate 3): 34940
Fluorescence intensity, fluorescence competitive binding assay, OBP11 ([3]; ligand concentration 10, replicate 1): 32152
Fluorescence intensity, fluorescence competitive binding assay, OBP11 ([3]; ligand concentration 10, replicate 2): 33920
Fluorescence intensity, fluorescence competitive binding assay, OBP11 ([3]; ligand concentration 10, replicate 3): 34003
Fluorescence intensity, fluorescence competitive binding assay, OBP11 ([3]; ligand concentration 12, replicate 1): 31331
Fluorescence intensity, fluorescence competitive binding assay, OBP11 ([3]; ligand concentration 12, replicate 2): 31885
Fluorescence intensity, fluorescence competitive binding assay, OBP11 ([3]; ligand concentration 12, replicate 3): 32147
Fluorescence intensity, fluorescence competitive binding assay, OBP11 ([3]; ligand concentration 14, replicate 1): 27789
Fluorescence intensity, fluorescence competitive binding assay, OBP11 ([3]; ligand concentration 14, replicate 2): 28913
Fluorescence intensity, fluorescence competitive binding assay, OBP11 ([3]; ligand concentration 14, replicate 3): 26664
Fluorescence intensity, fluorescence competitive binding assay, OBP11 ([3]; ligand concentration 16, replicate 1): 26184
Fluorescence intensity, fluorescence competitive binding assay, OBP11 ([3]; ligand concentration 16, replicate 2): 25844
Fluorescence intensity, fluorescence competitive binding assay, OBP11 ([3]; ligand concentration 16, replicate 3): 25199
Fluorescence intensity, fluorescence competitive binding assay, OBP11 ([3]; ligand concentration 18, replicate 1): 30237
Fluorescence intensity, fluorescence competitive binding assay, OBP11 ([3]; ligand concentration 18, replicate 2): 30011
Fluorescence intensity, fluorescence competitive binding assay, OBP11 ([3]; ligand concentration 18, replicate 3): 30462
Fluorescence intensity, fluorescence competitive binding assay, OBP11 ([3]; ligand concentration 20, replicate 1): 29291
Fluorescence intensity, fluorescence competitive binding assay, OBP11 ([3]; ligand concentration 20, replicate 2): 29263
Fluorescence intensity, fluorescence competitive binding assay, OBP11 ([3]; ligand concentration 20, replicate 3): 28048
IC50 [4]: > 20 µM
Fluorescence competitive binding assay, fluorescence intensity ([4]; ligand concentration 2): 45666 and 44893 and 46206
Fluorescence competitive binding assay, fluorescence intensity ([4]; ligand concentration 4): 43749 and 45410 and 42660
Fluorescence competitive binding assay, fluorescence intensity ([4]; ligand concentration 6): 44364 and 44740 and 45115
Fluorescence competitive binding assay, fluorescence intensity ([4]; ligand concentration 8): 41369 and 43894 and 46339
Fluorescence competitive binding assay, fluorescence intensity ([4]; ligand concentration 10): 41142 and 43565 and 45619
Fluorescence competitive binding assay, fluorescence intensity ([4]; ligand concentration 12): 38618 and 37689 and 38140
Fluorescence competitive binding assay, fluorescence intensity ([4]; ligand concentration 14): 35045 and 37361 and 38462
Fluorescence competitive binding assay, fluorescence intensity ([4]; ligand concentration 16): 32691 and 35765 and 36425
Fluorescence competitive binding assay, fluorescence intensity ([4]; ligand concentration 18): 35273 and 34668 and 35335
Fluorescence competitive binding assay, fluorescence intensity ([4]; ligand concentration 20): 34176 and 32081 and 34822
number of insects choosing hexane arm [5]: 14
number of insects choosing volatilies arm [5]: 14
number of insects failed (no choice) [5]: 12
